Data published in patent US6313174A, “Aminobenzophenones as inhibitors of interleukin and TNF” (Leo Pharmaceutical Products Ltd.A/S/ (L.o slashed.vens …, priority 1997, dated 2001).

What was measured:
TNF-α = assay: Inhibition of TNF-α secretion from LPS stimulated peripheral blood mononuclear cells (ELISA); type: cell-based; details: LPS (1 μg/ml) stimulated human PBMC, 18 hours; read-out: The median inhibition concentration (IC50, nM) of TNF-α
Experimental: (§1) To study the effect of the compound of the present invention, in vitro, the inhibition of the IL-1β and TNF-α secretion was measured using the following procedure:
(§2) Cytokine production was measured in the media from lipopolysaccharide (LPS) stimulated peripheral blood mononuclear cells. The mononuclear cells were isolated from human peripheral blood by Lymphoprep® (Nycomed, Norway) fractionation and suspended in RPMI 1640 (growth medium) with foetal calv serum (FCS, 2%), at a concentration of 5×10^5 cells/ml. The cells were incubated in 24-well tissue culture plates in 1 ml aliquots. Test compounds were dissolved in dimethylsulfoxide (DMSO, 10 mM) and were diluted with the medium. Compounds were added to the cells for 30 minutes, then LPS (1 μg/ml final concentration) was added. The plates were incubated for 18 hours, and the concentration of IL-1β and TNF-α in the medium was determined by enzyme-linked immunosorbent assays. The median inhibitory concentrations (IC50) of the compounds were calculated.

IL-1β = assay: Inhibition of IL-1β secretion from LPS stimulated peripheral blood mononuclear cells (ELISA); type: cell-based; details: LPS (1 μg/ml) stimulated human PBMC, 18 hours; read-out: The median inhibition concentration (IC50, nM) of IL-1β
Experimental: as §1, §2

PMN-superoxide = assay: Inhibition of PMN (polymorphonuclear) superoxide secretion; type: cell-based; details: human PMN granulocytes, TNF-α primed, fMLP 10^-7 M; read-out: The median inhibition concentration (IC50, nM) of PMN-superoxide
Experimental: The compounds of the present invention also show similar activities in the ability to inhibit PMN (polymorphonuclear) superoxide secretion which is also indicative of potentially useful anti-inflammatory drugs. The compounds were tested using the following procedure:
Human polymorphonuclear (PMN) granulocytes were isolated from human blood by dextran sedimentation, Lymphoprep® fractionation and hypotonic lysis of contaminating erythrocytes.
Superoxide anion generation was measured as the superoxide dismutase inhibitable reduction of ferricytochrome C (Madhu, S. B. et al, Inflammation, 16, 241, (1992)).
The cells were suspended in Hanks' balanced salt solution, and incubated for 10 minutes at 37° C. with test compounds. The cells were primed by the addition of TNF-α (3 ng/ml final concentration) for 10 minutes, and then ferricytochrome C, (final concentration 750 μg/ml), bovine serum albumin (BSA, final concentration 1 mg/ml) and formyl-methionyl-leucyl-phenylalanine (fMLP, final concentration 10^-7 M) were added for 3 minutes.
The cells were chilled on ice, and were spun down. The optical densities in the cell-free supernatant was measured in a spectrophotometer.
The median inhibitory concentration (IC50) of the compounds was calculated.

myeloperoxidase (MPO) = assay: TPA induced murine chronic skin inflammation model, myeloperoxidase (MPO) activity in ear biopsies; type: in vivo, mice; details: topical, twice daily on day 8, 9 and 10 and once on day 11
Experimental: (§3) To study the compounds of the present invention in vivo the 12--O--tetradecanoylphorbol-13-acetate (TPA) induced murine chronic skin inflammation model were used (De Young, L. M. et al, Agents Actions, 26, 335-341 (1989); Carlson, R. P. et al, Agents Actions, 17, 197-204 (1985); Alford, J. G. et al, Agents Action, 37, (1992); Stanley, P. L. et al, Skin Pharmacol, 4, 262-271 (1991)). The compounds were tested using the following procedure:
(§4) In groups of 6 female mice weighing 18-25 grams, ear skin inflammation was induced by multiple topical applications of TPA on alternate days during a 10 day period. The resulting inflammation was treated topically with compounds in acetone (20 μl/ear) twice daily on day 8, 9 and 10 and once on day 11. The increased ear thickness (ET, right ear thickness minus left ear thickness) was determined approximately 6 hours after the treatment, the mice were sacrificed and the myeloperoxidase (MPO)-activitywas determined in ear biopsies.

[1] = test system: TPA induced murine skin inflammation; assay: TPA induced murine chronic skin inflammation model, ear thickness (ET); type: in vivo, mice; details: topical, twice daily on day 8, 9 and 10 and once on day 11
Experimental: as §3, §4

[2] = Spleen and thymus weight in the TPA induced murine skin inflammation model; type: in vivo, mice; details: 0.1 mg/ear, topical
Experimental: as §3, §4

| Structure (SMILES) | IC50 (TNF-α) [nM] | IC50 (IL-1β) [nM] | IC50 (PMN-superoxide) [nM] | % inhibition of MPO (myeloperoxidase (MPO); 0.1 mg/ear) [%] | % inhibition of ET ([1]; 0.1 mg/ear) [%] | Reduction of spleen and thymus weight [2] | % inhibition of MPO (myeloperoxidase (MPO); 0.03 mg/ear) [%] | % inhibition of ET ([1]; 0.03 mg/ear) [%] |
| --- | --- | --- | --- | --- | --- | --- | --- | --- |
| Nc1ccccc1Nc1ccc(C(=O)c2ccccc2)cc1 [Example 1, 4-(2-Aminophenylamino)benzophenone] | 790 | 250 | 160 | 65 | 50 | – | – | – |
| Nc1ccc(Nc2ccc(C(=O)c3ccccc3)cc2)cc1 [Example 2, 4-(4-Aminophenylamino)benzophenone] | – | – | – | 76 | 40 | – | – | – |
| Cc1ccc(S(=O)(=O)Nc2ccccc2Nc2ccc(C(=O)c3ccccc3)cc2)cc1 [Example 27, N-(2-(4-Benzoylphenylamino)phenyl)-4-toluenesulfonamide] | – | – | – | 48 | 44 | – | – | – |
| C[C@]12CCC(=O)C=C1CC[C@@H]1[C@@H]2[C@@H](O)C[C@@]2(C)[C@H]1CC[C@]2(O)C(=O)CO [Hydrocortisone, reference compound] | – | – | – | 69 | 58 | Reduction of spleen and thymus weight | 51 | 36 |

Continued, in another order:

| IC50 (TNF-α) [nM] | IC50 (IL-1β) [nM] | IC50 (PMN-superoxide) [nM] | Structure (SMILES) | % inhibition of MPO (myeloperoxidase (MPO); 0.1 mg/ear) [%] | % inhibition of ET ([1]; 0.1 mg/ear) [%] | Reduction of spleen and thymus weight [2] | % inhibition of MPO (myeloperoxidase (MPO); 0.03 mg/ear) [%] | % inhibition of ET ([1]; 0.03 mg/ear) [%] |
| --- | --- | --- | --- | --- | --- | --- | --- | --- |
| 200 | 160 | 40 | Nc1ccccc1Nc1ccc(C(=O)c2ccccc2Cl)cc1 [Example 13, 4-(2-Aminophenylamino)-2'-chlorobenzophenone] | – | – | – | – | – |
| 130 | 100 | > 10000 | CCOC(=O)Nc1ccccc1Nc1ccc(C(=O)c2ccccc2)cc1 [Example 32, Ethyl N-(2-(4-benzoylphenylamino)phenyl)carbamate] | – | – | – | – | – |
| 7.1 | 13 | 5 | Cc1ccccc1C(=O)c1ccc(Nc2ccccc2N)cc1Cl [Example 56, 4-(2-Aminophenylamino)-2-chloro-2'-methylbenzophenone] | – | – | – | – | – |
| 5 | 32 | 5 | CCOC(=O)Nc1ccccc1Nc1ccc(C(=O)c2ccccc2C)c(Cl)c1 [Example 73, Ethyl N-(2-(4-(2-methylbenzoyl)-3-chlorophenylamino)phenyl)carbamate] | – | – | – | – | – |
